The results in this text go back to US6608107B2, “Methods and compositions to treat conditions associated with neovascularization” (Wackvom Limited, priority 2000, dated 2003).

One data set relates to endothelial cells. Nature of the data set: Endothelial Cell Assay (inhibition of endothelial cell growth). The format is cell-based. As to conditions: for Endothelial cell assay reading, samples 1-5: raw reading per sample. How it is done:
The assays were carried out according to the procedures of Connally, et al. (1986) Anal. Biochem. 152:136-4 with modifications (Liang and Wong (1999) ANGIOGENESIS: FROM THE MOLECULAR TO INTEGRATIVE PHARMACOLOGY edited by Maradoudakis, Kluwer Academic/Plenum. Publishers, New York).

Data set [1] is described as follows: Organ distribution of gossypol enantiomers. As to conditions: in vivo.

Values joined by “and” are separate entries in the source; they are usually repeats but may differ in a detail not shown here. Equal values may be shown once.

Consider `Cc1cc2c(C(C)C)c(O)c(O)c(C=O)c2c(O)c1-c1c(C)cc2c(C(C)C)c(O)c(O)c(C=O)c2c1O` [Gossypol Acetate, gossypol acetate], for which the Inhibition with endothelial cells (Gossypol Acetate, first column (concentration not given)) turned out to be 46.2%; with endothelial cells (Gossypol Acetate, second column (concentration not given)) it was 21.3%. In addition, the “Endothelial cell assay reading, samples 1-5” value in the data set with endothelial cells (Gossypol Acetate) is 0.3289 and 0.3165 and 0.3065 and 0.3035 and 0.3269. For the compound `Cc1cc2c(C(C)C)c(O)c(O)c(C=O)c2c(O)c1-c1c(C)cc2c(C(C)C)c(O)c(O)c(C=O)c2c1O` [(−) gossypol], in data set [1], the “organs in which the enantiomer concentrates” value was “concentrates in the major organs such as the heart, spleen and muscles”. `Cc1cc2c(C(C)C)c(O)c(O)c(C=O)c2c(O)c1-c1c(C)cc2c(C(C)C)c(O)c(O)c(C=O)c2c1O` [Gossypol]: the “Endothelial cell assay reading, samples 1-5” value in the data set with endothelial cells (Concentration of Gossypol: 25 mM) is 0.0112 and 0.0078 and 0.0057 and 0.0068 and 0.0076. In the data set with endothelial cells (Endothelial cell, Concentration of Gossypol: 25 mM), this compound yielded an inhibition at 25000 µM of 97.6%.

For the compound `Cc1cc2c(C(C)C)c(O)c(O)c(C=O)c2c(O)c1-c1c(C)cc2c(C(C)C)c(O)c(O)c(C=O)c2c1O` [(+) gossypol], the “organs in which the enantiomer concentrates” value in data set [1] was “concentrates in the kidneys”.

In general, Inhibition refers to how much of the control response was suppressed. High values mean strong suppression, low ones little suppression. What is called inhibition is the change of the read-out against control, counted positive when it falls. Read a low inhibition as a weak effect.
